Tests used:
[1] = test system: A549-ACE2 infected with SARS-CoV-2; experiment: cell count relative to DMSO; higher = less toxic; settings: 24 h
Caco-2 [2] = experiment: cell viability relative to DMSO; higher = less toxic; settings: 72 h
Calu-3 [3] = experiment: as above; settings: 72 h
HepG2 [4] = experiment: as above; settings: 72 h
U2OS [5] = experiment: as above; settings: 72 h
Vero E6 [6] = experiment: as above; settings: 72 h
[7] = test system: A549-ACE2 infected with SARS-CoV-2; experiment: SARS-CoV-2 infection rate relative to DMSO; higher = more infection; settings: 24 h
A549-ACE2 [8] = experiment: phospholipidosis EC50; higher = less potent phospholipidosis inducer
A549-ACE2 [9] = experiment: drug-induced phospholipidosis relative to tamoxifen; higher = more phospholipidosis
[10] = test system: A549-ACE2 infected with SARS-CoV-2; experiment: morphology score (similarity to uninfected cells); higher = more like uninfected cells; settings: 24 h
Calu-3 [11] = experiment: relative viability EC50 (midpoint between 100% and the lowest measured viability); higher = less toxic; settings: 72 h
HepG2 [12] = experiment: as above; settings: 72 h
Caco-2 [13] = experiment: drug sensitivity score (DSS) for viability; higher = more toxic; extreme values may be limits of the assay; settings: 72 h
Calu-3 [14] = experiment: as above; settings: 72 h
HepG2 [15] = experiment: as above; settings: 72 h
U2OS [16] = experiment: as above; settings: 72 h
Vero E6 [17] = experiment: as above; settings: 72 h

C1CCC(C(CC2CCCCN2)C2CCCCC2)CC1 (stereo not drawn) [perhexiline]
Settings | SARS-CoV-2 infection rate [%] | cell count [%] | cell viability [%] | morphology score | phospholipidosis EC50 [µM]
A549-ACE2 [8], 24 h | – | – | – | – | 0.945
A549-ACE2 [8], 48 h | – | – | – | – | 2.48
A549-ACE2 [8], 72 h | – | – | – | – | 4.51
Caco-2 [2], 1 nM | – | – | 92.7 | – | –
Caco-2 [2], 10 nM | – | – | 101 | – | –
Caco-2 [2], 100 nM | – | – | 93.9 | – | –
Caco-2 [2], 1000 nM | – | – | 90.9 | – | –
Caco-2 [2], 10000 nM | – | – | 63.5 | – | –
Calu-3 [3], 1 nM | – | – | 108 | – | –
Calu-3 [3], 10 nM | – | – | 101 | – | –
Calu-3 [3], 100 nM | – | – | 92.6 | – | –
Calu-3 [3], 1000 nM | – | – | 101 | – | –
Calu-3 [3], 10000 nM | – | – | 1.9 | – | –
HepG2 [4], 1 nM | – | – | 98.9 | – | –
HepG2 [4], 10 nM | – | – | 99.5 | – | –
HepG2 [4], 100 nM | – | – | 103 | – | –
HepG2 [4], 1000 nM | – | – | 95.1 | – | –
HepG2 [4], 10000 nM | – | – | 38.6 | – | –
U2OS [5], 1 nM | – | – | 101 | – | –
U2OS [5], 10 nM | – | – | 103 | – | –
U2OS [5], 100 nM | – | – | 103 | – | –
U2OS [5], 1000 nM | – | – | 98.6 | – | –
U2OS [5], 10000 nM | – | – | 62 | – | –
Vero E6 [6], 1 nM | – | – | 106 | – | –
Vero E6 [6], 10 nM | – | – | 103 | – | –
Vero E6 [6], 100 nM | – | – | 99.5 | – | –
Vero E6 [6], 1000 nM | – | – | 95.3 | – | –
Vero E6 [6], 10000 nM | – | – | 71.1 | – | –
[1], 0.1 µM | – | 99 | – | – | –
[1], 0.3 µM | – | 96 | – | – | –
[1], 1 µM | – | 105 | – | – | –
[1], 3 µM | – | 123 | – | – | –
[7], 0.1 µM | 100 | – | – | – | –
[7], 0.3 µM | 104 | – | – | – | –
[7], 1 µM | 79 | – | – | – | –
[7], 3 µM | 36 | – | – | – | –
[10], 0.1 µM | – | – | – | -0.02 | –
[10], 0.3 µM | – | – | – | -0.25 | –
[10], 1 µM | – | – | – | 0.35 | –
[10], 3 µM | – | – | – | 0.91 | –

drug-induced phospholipidosis [%], A549-ACE2 [9]
Settings | 0.3 µM | 0.833333 µM | 3.33333 µM | 6.66667 µM | 10 µM | 30 µM
24 h | 3.79 | 25.8 | 87.2 | 113 | 106 | 26.8
48 h | 4.34 | 16.1 | 84.3 | 113 | 121 | –
72 h | 5.16 | 14.3 | 68.3 | 99.9 | 120 | –

Settings | drug sensitivity score | relative viability EC50 [µM]
Caco-2 [13] | 2.9 | –
Calu-3 [11] | – | 3.24
Calu-3 [14] | 5.4 | –
HepG2 [12] | – | 2.51
HepG2 [15] | 4.1 | –
U2OS [16] | 2 | –
Vero E6 [17] | 2 | –
